# Where two headings read alike, the source gives them in different places.
# Tests used:
# ZIKV NS5 MTase = biological target: T1, ZIKV NS5 MTase (Zika virus, UniProt A0A024B7W1); assay: ZIKV NS5 MTase radioactive filter-binding assay (2′-O-MTase activity); assay type: biochemical; settings: at least two experiments; for IC50: read-out: IC50 (half-maximal inhibitory enzymatic concentration)
# T1 construct: KJ776791.2, aa 4–278; His6 (N); made in house; host or cells: Escherichia coli T7 Express Iq
# T1 sequence (A0A024B7W1 2524-2798): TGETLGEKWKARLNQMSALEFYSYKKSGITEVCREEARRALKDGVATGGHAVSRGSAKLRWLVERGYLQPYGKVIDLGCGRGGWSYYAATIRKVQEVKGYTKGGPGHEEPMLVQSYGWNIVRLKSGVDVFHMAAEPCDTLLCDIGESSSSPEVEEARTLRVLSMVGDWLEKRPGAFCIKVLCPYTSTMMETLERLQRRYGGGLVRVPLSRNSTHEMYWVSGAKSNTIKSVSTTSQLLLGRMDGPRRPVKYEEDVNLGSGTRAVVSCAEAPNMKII
# Method: Selected compounds were evaluated in enzymatic inhibition assays against both ZIKV and DENV 2′-O-MTase activity (For details, see Figure S3 in Supplementary Materials). The screening of compounds at a concentration of 50 µM highlighted a higher inhibitory activity against ZIKV MTase. We thus focused our efforts on ZIKV and determined the IC50 values against ZIKV MTase.
# Expression and purification of ZIKV NS5 MTase: The coding sequence of the ZIKV NS5 MTase domain (strain H/PF/2013, GenBank accession no. KJ776791.2, aa 4–278) was synthesized by Genscript and cloned into a pQE30 vector (Qiagen, Hilden, Germany) with an N-terminal His6 tag. The protein was expressed and purified following the procedures described in Coutard et al..
# Briefly, after expression in Escherichia coli T7 Express Iq (New England BioLabs) in Terrific Broth at 17 °C overnight, bacterial pellets were resuspended in lysis buffer (50 mM Tris-HCl [pH 8], 300 mM NaCl, 5% glycerol, 0.1% Triton, 10 μg/mL DNase I, 2 tablets of EDTA-free antiprotease cocktail [Roche] and 0.25 mg/mL lysozyme). Following cell lysis and clarification, the protein was purified by affinity on immobilized metal affinity chromatography (IMAC, His prep column [GE Healthcare]), followed by size exclusion chromatography (Superdex S75 HR 16/20 column [GE Healthcare]). The NS5-MTase was concentrated and stored at −20 °C after adding glycerol to a final concentration of 40%.
# Filter-binding assay: The transfer of tritiated methyl from ^[3H]SAM onto RNA substrate was monitored by a filter-binding assay (FBA), performed according to the method described previously. FBA was carried out in a reaction mixture [40 mM Tris-HCl (pH 8.0), 1 mM DTT, 2 μM SAM, and 0.1 μM 3H-SAM (Perkin Elmer, Shelton, CT, USA)] in the presence of 0.7 μM synthetic ^7mGpppAC4 and ZIKV NS5 MTase (500 nM). The enzyme was first mixed with an increasing concentration of inhibitors, previously suspended in dimethyl sulfoxide (DMSO), before the addition of RNA substrate and SAM, and then incubated at 30 °C. The final DMSO concentration in reactions was 5%. Reaction mixtures were stopped after 30 min incubation by their 10-fold dilution in ice-cold water. Samples were transferred to diethylaminoethyl (DEAE) filtermat (Perkin Elmer, Shelton, CT, USA) using a Filtermat Harvester (Packard Instruments, Meriden, CT, USA). The RNA-retaining mats were washed twice with 10 mM ammonium formate pH 8.0, twice with water, and once with ethanol before drying. They were soaked with scintillation fluid (Perkin Elmer, Shelton, CT, USA), and 3H-methyl transfer to the RNA substrates was determined using a Wallac MicroBeta TriLux Liquid Scintillation Counter (Perkin Elmer, Shelton, CT, USA). For IC50 measurements, values were normalized and fitted with Prism (GraphPad software version 10.1.1) using the following equation: Y = 100/(1 + ((X/IC50) ^ Hillslope)).
# [1] = Metabolic stability in human liver microsomes; assay type: in vitro ADME; settings: 1 h, 37 °C, three experiments
# Method: The metabolic stability was investigated by incubating selected compounds with human liver microsomes (HLMs) for 1 h at 37 °C. The percentage of non-metabolized compounds and metabolites was analyzed by HPLC-UV-MS. […] HPLC analysis confirmed the presence of the oxidated metabolites in small percentages.
# (§1) For the ADME property determination, an Agilent 1260 Infinity HPLC-DAD interfaced with an Agilent MSD 6130 (Agilent Technologies, Palo Alto, CA, USA) was used. Chromatographic conditions were optimized using a Phenomenex Kinetex C18-100 Å column (150 × 4.6 mm) with 5 µm particle size and gradient elution with a binary solution (eluent A: H2O; eluent B: ACN; both eluents were acidified with formic acid 0.1% v/v) at room temperature. The LC analyses started with 5% of B (from t = 0 to t = 1 min), then B was increased to 95% (from t = 1 to t = 10 min) and then kept at 95% (from t = 10 to t = 19 min) and finally returned to initial conditions in 1.0 min. The flow rate was 0.6 mL/min and the injection volume was 10 µL.
# The test was performed as previously reported with minor modifications. Each compound was dissolved in DMSO and phosphate buffer (0.025 M, pH 7.4), and human liver microsomes (0.2 mg/mL) and a NADPH-regenerating system in MgCl2 48 mM were added to a final volume of 500 µL. This solution was incubated for 1 h at 37 °C and then the reaction was stopped and quenched using 1 mL of ACN. The reaction mixtures were then centrifuged (4000 rpm for 10 min) and the supernatant was taken, dried under nitrogen flow, and then resuspended in 100 µL of methanol. The parent drug and metabolites were subsequently determined using the chromatographic conditions described above. The percentage of non-metabolized compounds was calculated by comparison with reference solutions. The determination of metabolic stability for each compound was performed in three independent experiments.
# [2] = Cytotoxicity assay (MTT) on Vero E6 cells; assay type: cell-based; settings: African green monkey
# Method: Compounds characterized by the best anti-enzymatic activity were tested against ZIKV in cellular assays. VERO E6 cells were infected with ZIKV at a multiplicity of infection (M.O.I.) of 0.1, and their activities were evaluated by a plaque reduction assay three days post-infection. Ribavirin was used as a reference compound. As reported in Table 2, compound 1, identified in the first screening, was unable to inhibit viral replication up to a 100 μM concentration. […] The cytotoxicity of the series was determined on the same cell line. […] Their selectivity indexes were calculated as the ratio between CC50 and IC50 values; the results highlight their promising safety profile.
# Monolayers of 2.5 × 10^4 Vero E6 cells per well were grown in flat-bottom 96-well culture plates and allowed to adhere overnight. Then, when the cell layers were confluent, the medium was removed, the wells were washed twice with PBS, treated with 100 µL of DMEM with 10 µL DMSO alone (cell positive control) or with various concentrations of anti-NS5 inhibitory compounds under study (compound final concentrations of 100, 10, 1, 0.1, and 0.01 μM), and incubated for 3 days at 37 °C in a CO2. After treatment, an MTT (3-(4,5-dimethylthiazol-2-yl)-2,5-diphenyltetrazolium bromide) kit (Roche, Milan, Italy) was used according to the supplier’s instructions, and the absorbance of each well was determined using a microplate spectrophotometer at a wavelength of 570 nm. Cytotoxicity was calculated by dividing the average optical density of treated samples by the average of DMSO-treated samples (cell positive control).
# [3] = Stability test in human plasma; assay type: in vitro ADME; settings: pH 7.4, 37 °C, up to 24 h, read-out: Plasma Stab. (T1/2, h ± SD) (converted)
# Method: Finally, compounds were incubated in human plasma at 37 °C for 24 h. […] Taken together, stability studies confirmed that the series is suitable for further development.
# as §1
# A stock solution of the target compound in DMSO (2 mM) was incubated in a test tube with pooled human plasma (55.7 mg protein/mL) and HEPES buffer (25 mM, 140 mM NaCl pH 7.4) up to a final volume of 1.0 mL. The mixture was incubated at 37 °C, and at set time points (0.0, 0.5, 1, 4, 8, 24 h), samples of 50 µL were taken, mixed with 400 µL of ACN to stop the reaction of plasmatic esterases, and centrifuged at 5000 rpm for 15 min. The supernatant was removed and analyzed using the LC-UV/MS method previously described. The half-life (t½) was calculated according to the following equation: t½=ln 2/k where k represents the substrate elimination constant. For each compound, the determination was performed in three independent experiments.
# ZIKV [4] = assay: ZIKV inhibitory viral plaque reduction assay in Vero E6 cells; assay type: cell-based, Zika virus; settings: for IC50: Zika virus
# ZIKV [5] = settings: cited from earlier work
# [6] = VERO E6 cells, MTT, 3 days, read-out: CC50 ± SD (half-maximal cytotoxic concentration)
# [7] = Vero C1008, read-out: IC50 ± SD (half-maximal inhibitory concentration, ZIKV plaque reduction)
Structure (SMILES),IC50 (ZIKV NS5 MTase) [µM],"SI (Selectivity Index, ratio between CC50 and IC50) (ZIKV [4]; VERO E6 cells)",also measured
NC(=O)c1ccc(NC(=O)c2cc3ccccc3s2)cc1 [Compound 10],36,,
NC(=O)c1ccc(NC(=O)c2cc3cc([N+](=O)[O-])ccc3s2)cc1 [Compound 5],37,,
Cc1cccc2cc(C(=O)Nc3ccc4c(c3)C(=O)N(C)C4=O)sc12 [Compound 20],18.9,>15.15,"HLM Stab.% ± SD (percentage of non-metabolized compound) [1]: 98.40 ± 0.12%; CC50 at 3 days [2, 6]: > 100 µM; half-life [3]: > 24 h; IC50 (ZIKV [4]; [7]): 6.6 ± 0.5 µM"
CN1C(=O)c2ccc(NC(=O)c3cc4cc([N+](=O)[O-])ccc4s3)cc2C1=O [Compound 3],16.6,>3.49,"CC50 at 3 days [2, 6]: > 100 µM; IC50 (ZIKV [4]; [7]): 28.6 ± 1.3 µM"
O=C(Nc1ccccc1)c1cc2cc([N+](=O)[O-])ccc2s1 [Compound 7],57,,
O=C(O)c1ccc(NC(=O)c2cc3cc([N+](=O)[O-])ccc3s2)cc1 [Compound 6],50,,
"NC(=O)c1ncn([C@@H]2O[C@H](CO)[C@@H](O)[C@H]2O)n1 [ribavirin, 1-β-d-Ribofuranosyl-1,2,4-Triazole-3-Carboxamide, reference compound]",,1.05,"CC50 at 3 days [2]: 100 ± 14 µM; EC50 against ZIKV (ZIKV [5]): high micromolar range; IC50 (ZIKV [4]; Vero C1008, VERO E6 cells, ZIKV M.O.I. 0.1, at least two experiments, read-out: IC50 ± SD (half-maximal inhibitory concentration, ZIKV plaque reduction)): 95.5 ± 0.6 µM"
CN1C(=O)c2ccc(NC(=O)c3cc4cc([N+](=O)[O-])ccc4o3)cc2C1=O [Compound 8],22.6,>52.63,"HLM Stab.% ± SD (percentage of non-metabolized compound) [1]: 96.93 ± 0.57%; CC50 at 3 days [2, 6]: > 100 µM; half-life [3]: 7.31 ± 0.17 h; IC50 (ZIKV [4]; [7]): 1.9 ± 0.3 µM"
CN1C(=O)c2ccc(NC(=O)c3cc4cc(Cl)ccc4s3)cc2C1=O [Compound 15],14.2,>71.43,"HLM Stab.% ± SD (percentage of non-metabolized compound) [1]: 98.57 ± 0.07%; CC50 at 3 days [2, 6]: > 100 µM; half-life [3]: > 24 h; IC50 (ZIKV [4]; [7]): 1.4 ± 0.3 µM"
CNC(=O)c1ccc(NC(=O)c2cc3ccccc3s2)cc1 [Compound 11],> 100,,IC50 (half-maximal inhibitory enzymatic concentration) (ZIKV NS5 MTase): completely abolished the activity
CN1C(=O)c2ccc(NC(=O)c3sc4ccccc4c3Cl)cc2C1=O [Compound 16],13.1,>38.46,"CC50 at 3 days [2, 6]: > 100 µM; IC50 (ZIKV [4]; [7]): 2.6 ± 0.2 µM"
CCN(CC)CCCC(C)Nc1ccnc2cc(Cl)ccc12 (centres unmarked) [chloroquine],,,EC50 (ZIKV [5]; read-out: in vitro EC50 against ZIKV): ~5 µM
CNC(=O)c1cccc(NC(=O)c2cc3ccccc3s2)c1 [Compound 12],> 100,,IC50 (half-maximal inhibitory enzymatic concentration) (ZIKV NS5 MTase): completely abolished the activity

# Continued, in another order:
IC50 (ZIKV NS5 MTase) [µM],Structure (SMILES),"SI (Selectivity Index, ratio between CC50 and IC50) (ZIKV [4]; VERO E6 cells)",also measured
31,CN1C(=O)c2ccc(NC(=O)c3cc4ccccc4s3)cc2C1=O [Compound 14],,
40,Cc1ccc2sc(C(=O)Nc3ccc4c(c3)C(=O)N(C)C4=O)cc2c1 [Compound 19],,
100,CN1C(=O)c2ccc(NC(=O)c3cc4c(Cl)cccc4s3)cc2C1=O [Compound 18],,
34,NS(=O)(=O)c1cccc(NC(=O)c2cc3cc([N+](=O)[O-])ccc3s2)c1 [Compound 4],,
46,O=C(Nc1ccc2c(c1)C(=O)NC2)c1cc2ccccc2s1 [Compound 13],,
20,O=C(Nc1ccc2c(c1)C(=O)NC2)c1cc2cc([N+](=O)[O-])ccc2s1 [Compound 2],,
> 100,CN1C(=O)c2ccc(NC(=O)c3cc4ccccc4o3)cc2C1=O [Compound 9],,IC50 (half-maximal inhibitory enzymatic concentration) (ZIKV NS5 MTase): completely inactive

# — article PMC10888717, “Identification of Novel Non-Nucleoside Inhibitors of Zika Virus NS5 Protein Targeting MTase Activity” (International Journal of Molecular Sciences, 2024)
